One data set addresses T1, mGlu2 receptor (Rattus norvegicus, UniProt P31421).
T1 construct: expressed in transfected cells; membranes prepared
The experiment in a line: [3H]-LY354740 binding on mGlu2 transfected CHO cell membranes. To be noted: inhibition of 10 nM [3H]-LY354740 binding, membranes of CHO cells transfected with rat mGlu2, room temperature, 1 hour. From the text: [^3H]-LY354740 Binding on mGlu2 Transfected CHO Cell Membranes. Transfection and Cell Culture
cDNA encoding the rat mGlu2 receptor protein in pBluescript II was subcloned into the eukaryotic expression vector pcDNA I-amp from Invitrogen Ltd (Paisley, UK). This vector construct (pcD1mGR^2) was co-transfected with a psvNeo plasmid encoding the gene for neomycin resistance, into CHO cells by a modified calcium phosphate method described by Chen & Okayama (1988). The cells were maintained in Dulbecco's Modified Eagle medium with reduced L-glutamine (2 mM final concentration) and 10% dialyzed fetal calf serum from Gibco-Invitrogen (Carlsbad, Calif., USA). Selection was made in the presence of G-418 (1000 ug/mL final) and MCPG[…]. Clones were identified by reverse transcription of 5 μg total RNA, followed by PCR using mGlu2 receptor specific primers 5′-[…]-3′ and 5′-[…]-3′ in 60 mM Tris HCl (pH 10), 15 mM (NH4)2SO4, 2 mM MgCl2, 25 units/mLTaq Polymerase with 30 cycles annealing at 60° C. for 1 min., extention at 72° C. for 30 s, and 1 min. 95° C. denaturation.
Cells, cultured as above, were harvested and washed three times with cold PBS and frozen at −80° C. The pellet was resuspended in cold 20 mM HEPES-NaOH buffer containing 10 mM EDTA (pH 7.4) and homogenized with a polytron (Kinematica, AG, Littau, Switzerland) for 10 s at 10 000 rpm. After centrifugation for 30 min. at 4° C., the pellet was washed once with the same buffer, and once with cold 20 mM HEPES-NaOH buffer containing 0.1 mM EDTA, (pH 7.4). Protein content was measured using the micro BCA method from Pierce-Perbio (Rockford, Ill., USA) using bovine serum albumin as standard.
After thawing, the membranes were resuspended in cold 50 mM Tris-HCl buffer containing 2 mM MgCl2 (pH 7) (binding buffer). The final concentration of the membranes in the assays was 25 μg protein/ml. Inhibition experiments were performed with membranes incubated with 10 nM [^3H]-LY354740 at room temperature, for 1 hour, in presence of various concentrations of the compound to be tested. Following the incubations, membranes were filtered onto Whatmann GF/B glass fiber filters and washed 5 times with cold binding buffer. Non specific binding was measured in the presence of 10 μM DCG IV. After transfer of the filters into plastic vials containing 10 mL of Ultima-gold scintillation fluid from Perkin-Elmer (Boston, Mass., USA), the radioactivity was measured by liquid scintillation in a Tri-Carb 2500 TR counter (Packard, Zürich, Switzerland).
The inhibition curves were fitted with a four parameter logistic equation giving IC50 values, and Hill coefficients.

T1 sequence (P31421 19-872): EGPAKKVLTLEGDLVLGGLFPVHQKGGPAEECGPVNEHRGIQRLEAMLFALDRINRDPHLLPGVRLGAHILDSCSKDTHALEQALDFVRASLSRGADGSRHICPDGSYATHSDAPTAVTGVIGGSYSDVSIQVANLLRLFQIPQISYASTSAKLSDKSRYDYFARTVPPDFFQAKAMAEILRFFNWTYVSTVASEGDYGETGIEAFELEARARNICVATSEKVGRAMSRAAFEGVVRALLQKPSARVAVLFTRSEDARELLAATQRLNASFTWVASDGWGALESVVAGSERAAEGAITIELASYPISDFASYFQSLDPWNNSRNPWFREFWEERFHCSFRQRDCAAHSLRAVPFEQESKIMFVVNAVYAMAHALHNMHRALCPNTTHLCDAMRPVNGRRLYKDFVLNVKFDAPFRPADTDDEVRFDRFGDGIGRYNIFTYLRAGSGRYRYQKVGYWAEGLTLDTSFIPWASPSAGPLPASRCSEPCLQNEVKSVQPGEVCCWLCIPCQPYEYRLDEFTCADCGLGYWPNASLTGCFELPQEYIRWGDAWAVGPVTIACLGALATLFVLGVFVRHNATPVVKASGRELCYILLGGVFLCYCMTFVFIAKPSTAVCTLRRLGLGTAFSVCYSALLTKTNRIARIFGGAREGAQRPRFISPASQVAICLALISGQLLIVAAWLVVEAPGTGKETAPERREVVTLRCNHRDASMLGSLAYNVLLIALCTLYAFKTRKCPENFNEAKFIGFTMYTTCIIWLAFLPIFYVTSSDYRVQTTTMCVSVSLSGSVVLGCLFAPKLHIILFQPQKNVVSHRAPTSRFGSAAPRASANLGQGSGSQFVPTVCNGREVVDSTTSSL

In the case of `CN1CCN(S(=O)(=O)c2ccc(C#Cc3cnn4c(C(F)(F)F)cc(-c5ccc(C(F)(F)F)cc5)nc34)s2)CC1` [Example 157, 3-[5-(4-Methyl-piperazine-1-sulfonyl)-thiophen-2-ylethynyl]-7-trifluoromethyl-5-(4-trifluoromethyl-phenyl)-pyrazolo[1,5-a]pyrimidine], the melting point amounted to 250 °C. On mGlu2 receptor, this molecule came in with an inhibition constant (Ki) of 8 nM. The matching figures for `NS(=O)(=O)c1cccc(C#Cc2cnn3c(C(F)(F)F)cc(-c4ccc(C(F)(F)F)cc4)nc23)c1` [Example 1, 3-[7-Trifluoromethyl-5-(4-trifluoromethyl-phenyl)-pyrazolo[1,5-a]pyrimidin-3-ylethynyl]-benzenesulfonamide]: 243 °C and 2 nM. In turn, `NS(=O)(=O)c1ccc(C#Cc2ncn3c(C(F)(F)F)cc(-c4ccc(C(F)(F)F)cc4)nc23)s1` [Example 179, 5-[4-Trifluoromethyl-2-(4-trifluoromethyl-phenyl)-imidazo[1,5-a]pyrimidin-8-ylethynyl]-thiophene-2-sulfonic acid amide] came in with a melting point of 255 °C. For the same molecule, at mGlu2 receptor, the affinity corresponds to a Ki of 1 nM. The matching figures for `NS(=O)(=O)c1ccc(C#Cc2ncn3c(C(F)(F)F)cc(-c4ccc(C(F)(F)F)cc4)nc23)cc1` [Example 178, 4-[4-Trifluoromethyl-2-(4-trifluoromethyl-phenyl)-imidazo[1,5-a]pyrimidin-8-ylethynyl]-benzenesulfonamide]: 290 °C and 8 nM. The matching figures for `NS(=O)(=O)c1ccc(C#Cc2cnn3c(C4CC4)cc(-c4ccc(Cl)c(Cl)c4)nc23)s1` [Example 86, 5-[7-Cyclopropyl-5-(3,4-dichloro-phenyl)-pyrazolo[1,5-a]pyrimidin-3-ylethynyl]-thiophene-2-sulfonic acid amide]: 213 to 214 °C and 3 nM. `CC(CO)(CO)NS(=O)(=O)c1cncc(C#Cc2cnn3c(C(F)(F)F)cc(-c4ccc(Cl)c(Cl)c4)nc23)c1` [Example 91, 5-[5-(3,4-Dichloro-phenyl)-7-trifluoromethyl-pyrazolo[1,5-a]pyrimidin-3-ylethynyl]-pyridine-3-sulfonic acid (2-hydroxy-1-hydroxymethyl-1-methyl-ethyl)-amide]: the inhibition constant Ki at mGlu2 receptor came out at 4 nM. On to `Cc1cc(C#Cc2cnn3c(C(F)(F)F)cc(-c4ccc(C(F)(F)F)cc4)nc23)ccn1` [Example 2, 3-(2-Methyl-pyridin-4-ylethynyl)-7-trifluoromethyl-5-(4-trifluoromethyl-phenyl)-pyrazolo[1,5-a]pyrimidine], for which the melting point stood at 206 °C. Same read-out and setting: next, `CN(C)CCNS(=O)(=O)c1ccc(C#Cc2cnn3c(C(F)(F)F)cc(-c4ccc(C(F)(F)F)cc4)nc23)s1` [Example 159, 5-[7-Trifluoromethyl-5-(4-trifluoromethyl-phenyl)-pyrazolo[1,5-a]pyrimidin-3-ylethynyl]-thiophene-2-sulfonic acid (2-dimethylamino-ethyl)-amide]: 178 °C. In turn, `Cc1cc(-c2cc(C(F)(F)F)n3ncc(C#Cc4ccc(S(=O)(=O)N5CCN(C)CC5)s4)c3n2)ccc1Cl` [Example 258, 5-(4-Chloro-3-methyl-phenyl)-3-[5-(4-methyl-piperazine-1-sulfonyl)-thiophen-2-ylethynyl]-7-trifluoromethyl-pyrazolo[1,5-a]pyrimidine] displayed a melting point of 229 °C. The molecule `CC(CO)NS(=O)(=O)c1cncc(C#Cc2cnn3c(C(F)(F)F)cc(-c4ccc(C(F)(F)F)cc4)nc23)c1` (stereo not shown) [Example 28, 5-[7-Trifluoromethyl-5-(4-trifluoromethyl-phenyl)-pyrazolo[1,5-a]pyrimidin-3-ylethynyl]-pyridine-3-sulfonic acid (2-hydroxy-1-methyl-ethyl)-amide] had a melting point of 225 to 226 °C. Same read-out and setting: the result for `O=S(=O)(NCCN1CCOCC1)c1ccc(C#Cc2cnn3c(C(F)(F)F)cc(-c4ccc(C(F)(F)F)cc4)nc23)s1` [Example 158, 5-[7-Trifluoromethyl-5-(4-trifluoromethyl-phenyl)-pyrazolo[1,5-a]pyrimidin-3-ylethynyl]-thiophene-2-sulfonic acid (2-morpholin-4-yl-ethyl)-amide] reads 219 °C; that for `FC(F)(F)c1ccc(-c2cc(C(F)(F)F)n3ncc(C#Cc4cccnc4C4CC4)c3n2)cc1` [Example 8, 3-(2-Cyclopropyl-pyridin-3-ylethynyl)-7-trifluoromethyl-5-(4-trifluoromethyl-phenyl)-pyrazolo[1,5-a]pyrimidine], 202 °C.

On to `CC(C)(CO)NS(=O)(=O)c1cncc(C#Cc2cnn3c(C4CC4)cc(-c4ccc(Cl)cc4)nc23)c1` [Example 67, 5-[5-(4-Chloro-phenyl)-7-cyclopropyl-pyrazolo[1,5-a]pyrimidin-3-ylethynyl]-pyridine-3-sulfonic acid (2-hydroxy-1,1-dimethyl-ethyl)-amide], for which the melting point is 230 to 231 °C. Same read-out and setting: the result for `NS(=O)(=O)c1ccc(C#Cc2cnn3c(C(F)(F)F)cc(-c4cccc(C(F)(F)F)c4)nc23)s1` [Example 119, 5-[7-Trifluoromethyl-5-(3-trifluoromethyl-phenyl)-pyrazolo[1,5-a]pyrimidin-3-ylethynyl]-thiophene-2-sulfonic acid amide] reads 250 °C; that for `NS(=O)(=O)c1cccc(C#Cc2cnn3c(C(F)(F)F)cc(-c4cccc(C(F)(F)F)c4)nc23)c1` [Example 118, 3-[7-Trifluoromethyl-5-(3-trifluoromethyl-phenyl)-pyrazolo[1,5-a]pyrimidin-3-ylethynyl]-benzenesulfonamide], 193 °C. The same measure, in the same setting: next, `NS(=O)(=O)c1cccc(C#Cc2cnc3c(C(F)(F)F)cc(-c4ccc(C(F)(F)F)cc4)cn23)c1` [Example 194, 3-[8-Trifluoromethyl-6-(4-trifluoromethyl-phenyl)-imidazo[1,2-a]pyridin-3-ylethynyl]-benzenesulfonamide]: 240 °C; `Nc1ccc(C#Cc2cnn3c(C(F)(F)F)cc(-c4ccc(C(F)(F)F)cc4)nc23)nn1` [Example 246, 6-[7-Trifluoromethyl-5-(4-trifluoromethyl-phenyl)-pyrazolo[1,5-a]pyrimidin-3-ylethynyl]-pyridazin-3-ylamine]: 214 to 216 °C. Still for that read-out and setting: the result for `Cc1cc(-c2ccc(C(F)(F)F)cc2)nc2c(C#Cc3cccc(S(N)(=O)=O)c3)cnn12` [Example 151, 3-[7-Methyl-5-(4-trifluoromethyl-phenyl)-pyrazolo[1,5-a]pyrimidin-3-ylethynyl]-benzenesulfonamide] reads 214 to 216 °C; that for `CC(C)(CO)NS(=O)(=O)c1cccc(C#Cc2cnn3c(C(F)(F)F)cc(-c4cccc(C(F)(F)F)c4)nc23)c1` [Example 107, N-(2-Hydroxy-1,1-dimethyl-ethyl)-3-[7-trifluoromethyl-5-(3-trifluoromethyl-phenyl)-pyrazolo[1,5-a]pyrimidin-3-ylethynyl]-benzenesulfonamide], 132 °C. As to `O=S(=O)(O)c1cncc(C#Cc2cnn3c(C(F)(F)F)cc(-c4ccc(C(F)(F)F)cc4)nc23)c1` [Example 37, 5-[7-Trifluoromethyl-5-(4-trifluoromethyl-phenyl)-pyrazolo[1,5-a]pyrimidin-3-ylethynyl]-pyridine-3-sulfonic acid], the melting point was above 288 °C. On to `Cc1cc(-c2ccc(C(F)(F)F)cc2)cn2c(C#Cc3cnc(N)nc3)cnc12` [Example 220, 5-[8-Methyl-6-(4-trifluoromethyl-phenyl)-imidazo[1,2-a]pyridin-3-ylethynyl]-pyrimidin-2-ylamine], for which the melting point worked out at 236 °C. On the same count and under the same terms, the result for `COCCNS(=O)(=O)c1cccc(C#Cc2cnn3c(C(F)(F)F)cc(-c4ccc(C(F)(F)F)cc4)nc23)c1` [Example 131, N-(2-Methoxy-ethyl)-3-[7-trifluoromethyl-5-(4-trifluoromethyl-phenyl)-pyrazolo[1,5-a]pyrimidin-3-ylethynyl]-benzenesulfonamide] reads 186 to 188 °C; that for `Cc1cc(-c2cc(C(F)F)n3ncc(C#Cc4cccc(S(N)(=O)=O)c4)c3n2)ccc1Cl` [Example 168, 3-[5-(4-Chloro-3-methyl-phenyl)-7-difluoromethyl-pyrazolo[1,5-a]pyrimidin-3-ylethynyl]-benzenesulfonamide], 215 °C.

For the origin of these results see patent US8063048B2, “Acetylenyl-pyrazolo-pyrimidine derivatives” (Hoffmann-La Roche Inc., priority 2005, dated 2011).
